Active and inactive are the calls of the source.
Key:
[1] = target: G-protein coupled receptor 35 (Homo sapiens, UniProt Q9HC97); experiment: GPR35 antagonists blocking zaprinast-driven arrestin recruitment, primary screen, imaging, U2OS, beta-arrestin-GFP, zaprinast agonist (AID 2058); type: functional;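 also: antagonist potency meaning inhibition of agonist-induced arrestin redistribution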
[2] = target: T1, Rac GTPase-activating protein 1 (Homo sapiens, UniProt Q9H0H5); experiment: MgcRacGAP GTPase-activating activity inhibitors, confirmation, biochemical, ADP Hunter fluorescence, primary and confirmatory (AID 624330); type: functional
T1 sequence (Q9H0H5 whole entry): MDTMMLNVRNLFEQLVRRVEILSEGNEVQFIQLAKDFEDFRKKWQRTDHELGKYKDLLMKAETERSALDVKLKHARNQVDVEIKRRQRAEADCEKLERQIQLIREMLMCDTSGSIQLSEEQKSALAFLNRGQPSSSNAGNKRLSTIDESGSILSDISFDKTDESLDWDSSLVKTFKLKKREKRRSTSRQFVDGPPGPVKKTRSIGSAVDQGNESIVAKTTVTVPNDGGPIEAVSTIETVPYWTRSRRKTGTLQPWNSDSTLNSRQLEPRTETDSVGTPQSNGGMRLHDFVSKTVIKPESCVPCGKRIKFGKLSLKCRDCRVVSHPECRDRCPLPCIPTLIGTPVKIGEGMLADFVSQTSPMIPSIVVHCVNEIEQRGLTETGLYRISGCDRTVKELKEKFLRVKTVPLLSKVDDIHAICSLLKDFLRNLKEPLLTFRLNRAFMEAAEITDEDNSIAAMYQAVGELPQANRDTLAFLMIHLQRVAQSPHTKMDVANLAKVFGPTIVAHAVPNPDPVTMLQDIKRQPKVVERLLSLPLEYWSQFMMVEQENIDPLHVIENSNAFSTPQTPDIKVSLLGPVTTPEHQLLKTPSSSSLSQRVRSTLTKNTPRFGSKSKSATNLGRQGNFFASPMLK

[3] = target: Eukaryotic translation initiation factor 4H (Homo sapiens, UniProt Q15056); experiment: eIF4H inhibition in translation initiation, SAR follow-up (AID 435011); type: functional
[4] = target: Polyadenylate-binding protein 1 (Homo sapiens, UniProt P11940); experiment: PABP inhibition in translation initiation, SAR follow-up (AID 435018); type: functional
Sequence of Polyadenylate-binding protein 1 (P11940 whole entry): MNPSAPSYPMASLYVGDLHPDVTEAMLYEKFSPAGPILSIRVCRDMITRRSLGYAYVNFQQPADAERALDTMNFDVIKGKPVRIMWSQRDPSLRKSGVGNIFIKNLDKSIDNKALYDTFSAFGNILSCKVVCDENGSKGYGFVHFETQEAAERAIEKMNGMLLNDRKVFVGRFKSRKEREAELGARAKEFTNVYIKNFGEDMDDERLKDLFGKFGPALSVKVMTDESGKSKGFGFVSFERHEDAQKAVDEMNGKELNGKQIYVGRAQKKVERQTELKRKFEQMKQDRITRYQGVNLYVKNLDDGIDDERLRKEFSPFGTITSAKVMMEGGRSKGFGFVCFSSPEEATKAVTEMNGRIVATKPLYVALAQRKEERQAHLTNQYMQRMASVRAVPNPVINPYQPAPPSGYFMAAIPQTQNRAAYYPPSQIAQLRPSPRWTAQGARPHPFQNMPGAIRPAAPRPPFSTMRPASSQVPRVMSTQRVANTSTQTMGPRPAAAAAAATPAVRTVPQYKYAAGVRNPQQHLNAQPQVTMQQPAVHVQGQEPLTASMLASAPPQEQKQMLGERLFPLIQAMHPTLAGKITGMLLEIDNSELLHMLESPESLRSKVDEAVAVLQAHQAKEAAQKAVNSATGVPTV

[5] = Luminescence Cell-Based Dose Confirmation HTS to Identify Activators of 5'UTR Stem-Loop Driven Alpha-Synuclein mRNA Translation in H4 Neuroglioblastoma Cells. [Related pubchem assays: 1829 (Project Summary), 1814 (Primary HTS)]; type: functional
[6] = Luminescence Cell-Based Dose Response HTS to Identify Activators of Luciferase Translation or Activity in H4 […] Cells. [Related pubchem assays: 1829 (Project Summary), 1814 (Primary HTS)]; type: functional
[7] = test system: H4; experiment: Luminescence Cell-Based Dose Response HTS to Identify Activators of 5'UTR Stem-Loop Driven Prion Protein mRNA Translation in H4 Neuroglioblastoma Cells. [Related pubchem assays: 1829 (Project Summary), 1814 (Primary HTS)]; type: functional; conditions: Homo sapiens
[8] = target: Alkaline phosphatase, placental type (Homo sapiens, UniProt P05187); experiment: PLAP enzyme inhibitors, confirmation, biochemical, luminescence (AID 1512); type: functional
Sequence of Alkaline phosphatase, placental type (P05187 whole entry): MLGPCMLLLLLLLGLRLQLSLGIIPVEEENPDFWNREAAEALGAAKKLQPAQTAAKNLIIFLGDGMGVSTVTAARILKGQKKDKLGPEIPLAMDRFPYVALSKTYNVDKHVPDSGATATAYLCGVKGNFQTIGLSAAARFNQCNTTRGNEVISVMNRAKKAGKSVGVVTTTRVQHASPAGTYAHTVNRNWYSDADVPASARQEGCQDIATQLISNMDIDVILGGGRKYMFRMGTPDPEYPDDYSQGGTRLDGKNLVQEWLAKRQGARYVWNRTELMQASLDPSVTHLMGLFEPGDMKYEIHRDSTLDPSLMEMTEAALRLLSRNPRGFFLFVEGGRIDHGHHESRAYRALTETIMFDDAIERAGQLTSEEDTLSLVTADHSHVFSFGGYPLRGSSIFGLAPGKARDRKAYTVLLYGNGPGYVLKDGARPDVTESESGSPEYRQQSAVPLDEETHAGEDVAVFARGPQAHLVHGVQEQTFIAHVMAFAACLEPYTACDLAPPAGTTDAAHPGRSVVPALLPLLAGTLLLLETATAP

[9] = target: T2, Tyrosine-protein phosphatase non-receptor type 7 (Homo sapiens, UniProt P35236); experiment: SAR analysis of chemical inhibitors of HePTP using a Fluorescent assay - Set 2. [Related pubchem assays (depositor defined):AID1059, AID1077, AID1661, AID2085, AID521]; type: functional
T2 sequence (P35236 whole entry): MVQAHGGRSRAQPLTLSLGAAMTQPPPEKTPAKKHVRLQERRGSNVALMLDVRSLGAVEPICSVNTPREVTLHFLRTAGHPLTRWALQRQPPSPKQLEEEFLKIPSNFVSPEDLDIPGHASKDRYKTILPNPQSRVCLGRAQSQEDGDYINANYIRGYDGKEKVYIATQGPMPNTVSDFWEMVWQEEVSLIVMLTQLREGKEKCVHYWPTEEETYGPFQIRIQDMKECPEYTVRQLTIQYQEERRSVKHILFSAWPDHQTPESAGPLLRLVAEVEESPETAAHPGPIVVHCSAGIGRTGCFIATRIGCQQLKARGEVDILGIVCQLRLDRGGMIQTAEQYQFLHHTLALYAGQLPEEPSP

[10] = target: Dual specificity protein phosphatase 3 (Homo sapiens, UniProt P51452); experiment: SAR VHR1 Fluorescent Assay for In Vitro dose response studies Set 2. [Related pubchem assays (depositor defined):AID1654, AID1661, AID1878]; type: functional
Sequence of Dual specificity protein phosphatase 3 (P51452 whole entry): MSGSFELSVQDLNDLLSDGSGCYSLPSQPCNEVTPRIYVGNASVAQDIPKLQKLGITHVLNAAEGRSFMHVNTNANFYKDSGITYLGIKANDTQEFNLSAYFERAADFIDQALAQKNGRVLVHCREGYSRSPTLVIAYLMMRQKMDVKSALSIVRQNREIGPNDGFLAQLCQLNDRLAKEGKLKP

[11] = human group III sPLA2 inhibitors, dose response, biochemical, QFRET, IC50 (AID 743457);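 also: green fluorescence rise as the enzyme cleaves BODIPY PC-A2 in liposomes; potency for inhibition of the enzyme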
[12] = HEp-2 cell cytotoxicity, dose response, cytotoxicity control for RSV inhibitor project, HTS (AID 2410); type: functional; conditions: human respiratory syncytial virus
[13] = target: Trypsin (Sus scrofa, UniProt P00761); experiment: porcine trypsin inhibitors, dose response, selectivity assay for Rce1 protease inhibitor project, biochemical, quenched peptide fluorescence, cherry-pick (AID 488789)
Sequence of Trypsin (P00761 whole entry): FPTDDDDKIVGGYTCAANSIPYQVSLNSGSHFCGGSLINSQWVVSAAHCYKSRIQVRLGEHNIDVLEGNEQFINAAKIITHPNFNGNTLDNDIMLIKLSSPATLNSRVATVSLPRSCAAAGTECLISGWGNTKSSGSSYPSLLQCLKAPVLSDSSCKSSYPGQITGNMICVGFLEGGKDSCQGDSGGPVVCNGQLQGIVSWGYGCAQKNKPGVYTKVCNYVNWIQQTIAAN

[14] = target: T3, CAAX prenyl protease 2 (Homo sapiens, UniProt Q9Y256); experiment: human Rce1 protease inhibitors, dose response, biochemical, yeast membranes, quenched-peptide fluorescence, cherry-pick (AID 588849)
T3 sequence (Q9Y256 whole entry): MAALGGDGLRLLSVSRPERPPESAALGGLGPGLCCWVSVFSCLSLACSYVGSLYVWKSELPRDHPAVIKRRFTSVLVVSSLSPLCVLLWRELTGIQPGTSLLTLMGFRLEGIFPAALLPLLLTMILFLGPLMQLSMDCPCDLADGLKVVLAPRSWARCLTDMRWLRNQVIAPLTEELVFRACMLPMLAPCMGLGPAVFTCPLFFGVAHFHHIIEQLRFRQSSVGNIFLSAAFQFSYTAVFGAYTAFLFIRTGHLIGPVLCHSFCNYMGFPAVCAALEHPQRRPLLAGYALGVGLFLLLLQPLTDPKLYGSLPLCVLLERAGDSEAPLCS

[15] = test system: Streptococcus sp. 'group A'; experiment: growth inhibition of control SK(-) GAS strain, dose response, counter-screen for streptokinase expression inhibitor project, luminescence, kanamycin, BacTiterGlo, confirmation (AID 1900); type: functional, organism-based
[16] = target: T4, Streptokinase A (Streptococcus pyogenes serotype M1, UniProt P10520); experiment: S. pyogenes streptokinase expression inhibitors, potency, dose response, plasminogen activation absorbance, OD405 (AID 1914); type: functional, Streptococcus pyogenes M1 GAS;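 also: secreted streptokinase activity via plasminogen activation per viability signal from cell pellet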
T4 sequence (P10520 whole entry): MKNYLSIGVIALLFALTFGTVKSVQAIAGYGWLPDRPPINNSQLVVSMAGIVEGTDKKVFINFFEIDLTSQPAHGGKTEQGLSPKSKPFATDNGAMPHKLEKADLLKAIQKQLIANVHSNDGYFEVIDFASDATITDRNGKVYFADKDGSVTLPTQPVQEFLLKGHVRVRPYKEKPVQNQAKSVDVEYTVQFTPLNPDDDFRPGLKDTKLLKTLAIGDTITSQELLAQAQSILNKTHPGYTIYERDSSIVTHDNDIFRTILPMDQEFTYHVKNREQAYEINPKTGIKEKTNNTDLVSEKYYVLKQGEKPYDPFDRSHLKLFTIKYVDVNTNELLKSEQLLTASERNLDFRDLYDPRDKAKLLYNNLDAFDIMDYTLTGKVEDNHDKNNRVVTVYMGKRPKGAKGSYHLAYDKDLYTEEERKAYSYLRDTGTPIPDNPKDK

[17] = target: G-protein coupled receptor 55 (Homo sapiens, UniProt Q9Y2T6); experiment: GPR55 antagonists blocking LPI-driven arrestin recruitment, primary screen, imaging, U2OS, beta-arrestin-GFP, LPI agonist (AID 2013); type: functional;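 also: antagonist potency measured as reduced agonist-driven arrestin aggregation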
Sequence of G-protein coupled receptor 55 (Q9Y2T6 whole entry): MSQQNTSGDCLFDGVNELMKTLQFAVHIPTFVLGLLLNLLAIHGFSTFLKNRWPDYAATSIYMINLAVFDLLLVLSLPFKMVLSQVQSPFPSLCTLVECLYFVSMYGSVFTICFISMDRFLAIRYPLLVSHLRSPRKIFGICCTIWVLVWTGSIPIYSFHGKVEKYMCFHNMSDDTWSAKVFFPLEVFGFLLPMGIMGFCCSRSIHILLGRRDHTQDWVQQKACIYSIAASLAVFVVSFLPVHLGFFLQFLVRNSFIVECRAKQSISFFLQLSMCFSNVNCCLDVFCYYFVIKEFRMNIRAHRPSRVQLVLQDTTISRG

[18] = test system: Streptococcus; experiment: Group A Streptococcus viability loss, dose response, counter-screen for streptokinase expression inhibitor project, luminescence, BacTiterGlo (AID 1915); type: functional, organism-based;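 also: potency for reduction of bacterial viability or growth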
[19] = target: Hexokinase (Trypanosoma brucei, UniProt Q38C41); experiment: Confirmation assay for inhibitors of Trypanosoma brucei hexokinase 1-Analogue-first series. [Related pubchem assays (depositor defined):AID1430, AID1632, AID2516, AID2560, AID2579, AID2600, AID449725, AID492951]; type: functional
Sequence of Hexokinase (Q38C41 whole entry): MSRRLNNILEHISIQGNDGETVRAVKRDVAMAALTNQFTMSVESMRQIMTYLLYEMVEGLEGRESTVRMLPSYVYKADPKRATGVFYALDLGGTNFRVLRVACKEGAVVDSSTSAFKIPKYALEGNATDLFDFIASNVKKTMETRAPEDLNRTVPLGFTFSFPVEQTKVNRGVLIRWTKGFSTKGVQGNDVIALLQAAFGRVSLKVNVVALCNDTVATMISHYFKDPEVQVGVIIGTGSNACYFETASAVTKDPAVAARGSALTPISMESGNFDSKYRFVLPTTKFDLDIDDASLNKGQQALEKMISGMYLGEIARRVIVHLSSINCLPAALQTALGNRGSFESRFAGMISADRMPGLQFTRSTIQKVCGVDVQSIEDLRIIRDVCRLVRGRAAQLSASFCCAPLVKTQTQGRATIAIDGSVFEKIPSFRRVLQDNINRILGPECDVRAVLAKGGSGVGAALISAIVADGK

[20] = target: Glucose-6-phosphate 1-dehydrogenase (Homo sapiens, UniProt P11413); experiment: human G6PD enzyme inhibitors, dose response, selectivity assay for P. falciparum G6PD inhibitor project, biochemical, fluorescence (AID 504792); type: functional
Sequence of Glucose-6-phosphate 1-dehydrogenase (P11413 whole entry): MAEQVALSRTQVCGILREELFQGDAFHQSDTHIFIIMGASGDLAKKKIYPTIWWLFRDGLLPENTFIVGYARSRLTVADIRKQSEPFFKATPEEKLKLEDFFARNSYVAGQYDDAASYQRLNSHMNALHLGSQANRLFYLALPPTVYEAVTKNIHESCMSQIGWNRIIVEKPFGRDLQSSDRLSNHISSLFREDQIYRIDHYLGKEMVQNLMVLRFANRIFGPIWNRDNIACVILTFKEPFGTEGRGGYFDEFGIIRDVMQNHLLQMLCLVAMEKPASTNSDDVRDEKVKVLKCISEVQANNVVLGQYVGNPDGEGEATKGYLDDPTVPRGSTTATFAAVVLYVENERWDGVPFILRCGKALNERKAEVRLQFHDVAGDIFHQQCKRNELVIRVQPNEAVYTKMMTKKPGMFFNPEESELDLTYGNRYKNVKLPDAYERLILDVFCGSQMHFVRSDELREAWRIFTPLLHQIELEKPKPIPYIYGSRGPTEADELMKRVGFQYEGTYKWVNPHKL

[21] = HeLa cell cytotoxicity, dose response, cytotoxicity control for MgcRacGAP inhibitor project (AID 624300); type: functional
[22] = target: Bcl-2-like protein 10 (Homo sapiens, UniProt Q9HD36); experiment: displacers of TR3 peptide from Bcl-B, primary screen, selectivity assay for Bfl-1 inhibitor project, biochemical, fluorescence polarization, FITC-TR3 peptide (AID 748);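 also: fluorescence polarization from a fluorescein-labelled TR3 peptide binding purified Bcl-B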
Sequence of Bcl-2-like protein 10 (Q9HD36 whole entry): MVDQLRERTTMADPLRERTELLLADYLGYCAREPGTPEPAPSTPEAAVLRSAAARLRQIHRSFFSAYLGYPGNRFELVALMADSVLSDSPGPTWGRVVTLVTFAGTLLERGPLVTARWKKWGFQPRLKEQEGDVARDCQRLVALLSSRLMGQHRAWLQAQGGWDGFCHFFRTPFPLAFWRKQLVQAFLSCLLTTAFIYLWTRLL

[23] = target: T5, Short transient receptor potential channel 4 (Mus musculus, UniProt Q9QUQ5); experiment: mouse TRPC4 channel inhibitors, dose response, cell-based, HEK293 TRPC4/mu-opioid, Fluo-4 calcium (AID 434942); type: functional;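 also: potency of inhibitors blocking the TRPC4 calcium response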
T5 sequence (Q9QUQ5 whole entry): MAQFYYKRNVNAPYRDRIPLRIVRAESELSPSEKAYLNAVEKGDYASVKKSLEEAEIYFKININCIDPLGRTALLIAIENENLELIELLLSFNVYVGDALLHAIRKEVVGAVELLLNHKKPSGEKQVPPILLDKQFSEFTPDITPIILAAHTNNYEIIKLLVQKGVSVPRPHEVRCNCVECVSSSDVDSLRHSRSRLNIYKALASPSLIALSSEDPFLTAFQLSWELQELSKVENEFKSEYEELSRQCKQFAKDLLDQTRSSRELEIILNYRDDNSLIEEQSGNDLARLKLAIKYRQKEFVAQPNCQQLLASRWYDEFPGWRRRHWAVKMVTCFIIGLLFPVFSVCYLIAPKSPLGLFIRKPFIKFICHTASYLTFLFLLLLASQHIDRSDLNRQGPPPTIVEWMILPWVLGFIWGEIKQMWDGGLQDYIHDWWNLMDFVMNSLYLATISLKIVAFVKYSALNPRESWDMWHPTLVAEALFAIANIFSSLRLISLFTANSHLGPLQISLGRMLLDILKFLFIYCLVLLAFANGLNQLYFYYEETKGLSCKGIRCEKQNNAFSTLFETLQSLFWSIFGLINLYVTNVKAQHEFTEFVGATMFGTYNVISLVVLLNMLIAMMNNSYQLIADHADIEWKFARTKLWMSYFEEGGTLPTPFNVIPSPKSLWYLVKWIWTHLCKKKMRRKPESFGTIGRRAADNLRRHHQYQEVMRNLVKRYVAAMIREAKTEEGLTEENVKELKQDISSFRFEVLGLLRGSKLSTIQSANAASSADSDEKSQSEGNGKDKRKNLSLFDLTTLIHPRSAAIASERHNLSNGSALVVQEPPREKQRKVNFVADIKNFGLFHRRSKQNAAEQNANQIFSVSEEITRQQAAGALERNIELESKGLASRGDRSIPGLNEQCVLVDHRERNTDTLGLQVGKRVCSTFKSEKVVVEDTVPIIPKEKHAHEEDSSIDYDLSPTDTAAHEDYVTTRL

[24] = target: Nonstructural protein 1 (Influenza A virus, UniProt Q194T2); type: functional, Influenza A virus (A/California/07/2009(H1N1))
Sequence of Nonstructural protein 1 (Q194T2 whole entry): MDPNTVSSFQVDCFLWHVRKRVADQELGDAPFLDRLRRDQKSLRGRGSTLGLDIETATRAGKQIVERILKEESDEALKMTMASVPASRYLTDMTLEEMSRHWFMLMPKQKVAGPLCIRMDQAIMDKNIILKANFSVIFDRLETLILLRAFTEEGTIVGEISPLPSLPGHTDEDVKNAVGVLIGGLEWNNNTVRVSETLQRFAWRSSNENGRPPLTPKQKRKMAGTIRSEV

[25] = target: Delta-type opioid receptor (Homo sapiens, UniProt P41143); experiment: Counterscreen for agonists of heterodimerization of the mu 1 (OPRM1) and delta 1 (OPRD1) opioid receptors: Luminescence-based cell-based high throughput dose response assay to identify agonists of OPRD1 homodimerization. [Related pubchem assays (depositor defined):AID504326, AID504355, AID504692, AID504904, AID504905]; type: functional
Sequence of Delta-type opioid receptor (P41143 whole entry): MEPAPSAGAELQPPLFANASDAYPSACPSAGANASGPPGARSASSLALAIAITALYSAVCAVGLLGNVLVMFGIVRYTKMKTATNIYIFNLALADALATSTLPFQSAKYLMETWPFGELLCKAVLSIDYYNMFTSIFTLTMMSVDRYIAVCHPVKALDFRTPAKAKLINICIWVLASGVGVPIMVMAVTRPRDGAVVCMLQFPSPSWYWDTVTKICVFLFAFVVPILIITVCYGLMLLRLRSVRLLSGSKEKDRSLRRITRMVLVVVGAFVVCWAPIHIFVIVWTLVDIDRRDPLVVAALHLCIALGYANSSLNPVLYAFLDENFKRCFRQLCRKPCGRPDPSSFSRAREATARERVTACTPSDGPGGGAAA

[26] = target: Mu-type opioid receptor (Homo sapiens, UniProt P35372); experiment: Counterscreen for agonists of heterodimerization of the mu 1 (OPRM1) and delta 1 (OPRD1) opioid receptors: Luminescence-based cell-based high throughput dose response assay to identify agonists of OPRM1 homodimerization.; type: functional;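 also: U2OS cells expressing OPRM1 and beta-arrestin as split beta-galactosidase partners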
Sequence of Mu-type opioid receptor (P35372 whole entry): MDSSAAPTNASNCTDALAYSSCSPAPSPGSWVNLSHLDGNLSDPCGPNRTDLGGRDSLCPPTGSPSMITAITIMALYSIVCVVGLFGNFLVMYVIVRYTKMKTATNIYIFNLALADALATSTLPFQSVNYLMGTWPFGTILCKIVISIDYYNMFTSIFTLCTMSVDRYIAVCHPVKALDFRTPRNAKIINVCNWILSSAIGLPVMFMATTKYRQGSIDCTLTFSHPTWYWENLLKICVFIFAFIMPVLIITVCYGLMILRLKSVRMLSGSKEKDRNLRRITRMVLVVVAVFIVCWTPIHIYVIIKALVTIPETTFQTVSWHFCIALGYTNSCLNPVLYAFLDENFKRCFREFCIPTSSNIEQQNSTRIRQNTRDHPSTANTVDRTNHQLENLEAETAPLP

[27] = target: 5-hydroxytryptamine receptor 5A (Homo sapiens, UniProt P47898); experiment: Counterscreen for agonists of OPRM1-OPRD1 heterodimerization: luminescence-based cell-based high throughput dose response assay to identify agonists of 5-hydroxytryptamine (serotonin) 5A receptor (HTR5A). [Related pubchem assays (depositor defined):AID504326, AID504355, AID504692, AID504904, AID504905]; type: functional

Sequence of G-protein coupled receptor 35 (Q9HC97 whole entry): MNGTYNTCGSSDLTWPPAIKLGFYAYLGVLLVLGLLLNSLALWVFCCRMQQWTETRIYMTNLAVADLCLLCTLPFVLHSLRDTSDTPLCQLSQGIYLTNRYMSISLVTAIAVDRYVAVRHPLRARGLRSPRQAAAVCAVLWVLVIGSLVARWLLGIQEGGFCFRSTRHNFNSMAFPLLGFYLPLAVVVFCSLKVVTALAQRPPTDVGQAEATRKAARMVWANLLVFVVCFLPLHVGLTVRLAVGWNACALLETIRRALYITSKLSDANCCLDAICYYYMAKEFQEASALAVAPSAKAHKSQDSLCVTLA

CN(C)c1ccc(/C=C2\NC(=S)N(Cc3ccccc3)C2=O)cc1
IC50 [1]: 0.651 µM (active)

N#C/C(=C/c1ccc(N2CCOCC2)o1)c1nc2ccccc2[nH]1
IC50 [1]: 2.41 µM (active) | IC50 [2]: 20.4 µM (active)

O=C(CSc1ccc(-c2ccco2)nn1)NCc1ccccc1
IC50 [3]: 57 µM (active) | IC50 [4]: > 100 µM (inactive)

COc1ccc(N=C2SC(C(=O)Nc3ccc(F)cc3)CC(=O)N2C)cc1 (configuration not stated)
IC50 [3]: > 100 µM (inactive) | IC50 [4]: > 100 µM (inactive)

Cc1ccc(NC(S)=NNC(=O)c2nn(C)c(C)c2Cl)cc1
EC50 [5]: 6.19 µM (active) | EC50 [6]: 12 µM (active) | EC50 [7]: 10.9 µM (active) | IC50 [8]: > 100 µM (inactive) | IC50 [9]: > 100 µM (inactive) | IC50 [10]: > 100 µM (inactive) | IC50 [11]: > 122 µM (inactive)

NC(=O)c1sc2nc(N3CCCCC3)c3c(c2c1N)CCCC3
CC50 [12]: 15.6 µM (active) | AC50 [13]: 3.58 µM (active) | AC50 [14]: 7.04 µM (active)

c1ccc(-c2noc(-c3ccccc3-c3ccccc3)n2)cc1
EC50 [15]: 11.8 µM (active) | EC50 [16]: 21.5 µM (active) | IC50 [17]: 6.09 µM (active) | EC50 [18]: > 150 µM (not active)

O=c1c2cc(F)ccc2sn1-c1ccccc1Cl
IC50 [19]: 2.33 µM (active) | IC50 [20]: 15.9 µM (active) | CC50 [21]: 71.9 µM (active) | IC50 [2]: 35 µM (active)

O=C(Nc1cc(Cl)ccc1C(=O)O)c1ccc(-c2cccs2)cc1
IC50 [19]: > 25 µM (inactive)

CC(=O)Nc1ccc(S(=O)(=O)NC2=C(N3CCN(Cc4ccccc4)CC3)C(=O)c3ccccc3C2=O)cc1
IC50 [22]: 77.9 µM (inactive) | EC50 [23]: 1.06 µM (active) | IC50 [24]: 21.4 µM (active) | EC50 [25]: > 92.4 µM (inactive) | EC50 [26]: > 92.4 µM (inactive) | EC50 [27]: > 92.4 µM (inactive)
